According to article PMC4703104 (Journal of medicinal chemistry, 2015):
One block for each compound: values may come before it.

What was measured:
[1] = tested on: mouse; details: mouse models ref 5; cited from earlier work
[2] = tested on: rat; details: rat models ref 5; cited from earlier work
[3] = molecular target: δ receptor (Homo sapiens, UniProt P41143); assay: PathHunter β-arrestin recruitment assay in CHO-OPRD1 cells; format: cell-based
[4] = molecular target: T1, human δ receptor (hDOPr) (Homo sapiens, UniProt P41143); assay: cell-based
[5] = molecular target: T1, human δ receptor (hDOPr); assay: [3H]diprenorphine radioligand; format: binding
[6] = Nephelometry; format: physicochemical
[7] = HBSS + 25 mM HEPES and 10% FBS (β-arrestin assay buffer)
[8] = phosphate buffered saline solution, data not shown

T1 sequence (P41143 whole entry): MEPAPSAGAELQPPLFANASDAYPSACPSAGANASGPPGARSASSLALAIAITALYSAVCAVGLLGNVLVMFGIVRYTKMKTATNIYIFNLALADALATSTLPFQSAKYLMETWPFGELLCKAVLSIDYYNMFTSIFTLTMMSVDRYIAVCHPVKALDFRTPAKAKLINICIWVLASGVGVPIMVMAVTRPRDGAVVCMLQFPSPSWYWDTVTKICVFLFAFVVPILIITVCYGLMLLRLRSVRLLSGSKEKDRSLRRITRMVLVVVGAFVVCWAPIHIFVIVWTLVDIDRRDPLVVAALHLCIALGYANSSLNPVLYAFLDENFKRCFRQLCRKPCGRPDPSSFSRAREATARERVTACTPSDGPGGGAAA
Chain of δ receptor (P41143 whole entry): as above

Structure (SMILES): CCN(CC)C(=O)c1ccc(C2=CC3(CCNCC3)Oc3cccc(O)c32)cc1 [ADL5859, N,N-diethyl-4-(5-hydroxyspiro-[chromene-2,4′-piperidine]-4-yl)benzamide]
seizures [1]: no seizures
seizures [2]: no seizures

Structure (SMILES): CN1CC[C@]2(c3cccc(O)c3)Cc3nc4ccccc4cc3C[C@H]2C1 [TAN67]
Kd [4]: 3.98 nM
Ki [5]: 10 nM
affinity ratio (vehicle Ki)/(2 Ki) ([5]; effect of 2 (10 μM) on the orthosteric agonist's Ki): 3

Structure (SMILES): Cc1ccccc1COc1ccc(C2C3=C(CC(C)(C)CC3=O)OC3=C2C(=O)CC(C)(C)C3)cc1 [compound 2, 3,3,6,6-tetramethyl-9-(4-((2-methylbenzyl)oxy)phenyl)-3,4,5,6,7,9-hexahydro-1H-xanthene-1,8(2H)-dione]
concentrations showing particulate matter [6, 7]: above 3 μM
concentrations showing particulate matter [6, 8]: above 1 μM

Next, values leading:

PAM activity at the δ receptor ([3]; PAM mode, EC20 of leu-enkephalin): robust potentiation
Structure (SMILES): CC1(C)CC(=O)C2=C(C1)OC1=C(C(=O)CC(C)(C)C1)C2c1ccc(OCc2ccc(F)cc2)cc1 [compound 7]

concentrations showing particulate matter [6, 7]: above 3 μM
concentrations showing particulate matter [6, 8]: above 1 μM
Structure (SMILES): CC1(C)CC(=O)C2=C(C1)OC1=C(C(=O)CC(C)(C)C1)C2c1ccc(OCc2ccccc2Br)cc1 [compound 10, 9-(4-((2-Bromobenzyl)oxy)phenyl)-3,3,6,6-tetramethyl-3,4,5,6,7,9-hexahydro-1H-xanthene-1,8(2H)-dione]

selectivity μ/δ ([3]; potency ratio of PAM mode EC50 values, β-arrestin recruitment): >33
Structure (SMILES): CC1(C)CC(=O)C2=C(C1)OC1=C(C(=O)CC(C)(C)C1)C2c1ccc(OCc2ccccc2Cl)cc1 [compound 8]
